In patent publication US20230067609A1, “ENDOPHYTIC MICROBES FOR GROWTH PROMOTION OF CROP PLANTS AND SUPPRESSION OF AGGRESSIVE INVASIVE PLANT SPECIES, BIOHERBICIDES COMPRISING THE SAME AND METHODS OF USE THEREOF” (priority 2018, published 2023):

Tests used:
Format in all cases: in vivo
Poa annua = assay: Screen of short-chain organic acids for effects on roots, agarose medium, seeds inoculated with Pseudomonas strain SLB4; details: for Inhibitory Activity On Germination / Inhibitory Activity On Gravitropism / Inhibitory Activity On Hair Length / Inhibitory Activity On Root Length / Inhibitory Activity On Bact. Entry: organic acids 0-1 mM in 0.7% agarose, 7 days; for Inhibitory Activity On Bact. Entry: Pseudomonas strain SLB4
Poa reptans seedlings = assay: Seeds germinated on agarose with and without 0.05% arginine
From the text: In laboratory experiments, we germinated seeds of the grass Poa reptans on agarose with and without 0.05% arginine.
This is further evidence that exposure of plants to arginine results in excess production of reactive oxygen species (ROS).

[1] = system: Phragmites australis plants; assay: Sodium butyrate applied to roots over a 6-week period; details: 10 mM applied to roots over a 6-week period

| Structure (SMILES) | seedling growth inhibition (Poa annua) | Inhibitory Activity On Germination (Poa annua) | Inhibitory Activity On Gravitropism (Poa annua) | Inhibitory Activity On Hair Length (Poa annua) | Inhibitory Activity On Root Length (Poa annua) | Inhibitory Activity On Bact. Entry (Poa annua) | chlorophylls in shoot cells (Poa reptans seedlings; 0.05% arginine) | growth of shoots and roots (Poa reptans seedlings; 0.05% arginine in agarose, 7 days) | colonization of chloroplasts by bacteria (Poa reptans seedlings; 0.05% arginine, leaf cells, microscopy) | root hairs (Poa reptans seedlings; arginine-treated seedlings) | hydrogen peroxide around roots (Poa reptans seedlings; diaminobenzidine tetrahydrochloride stain) | superoxide in roots (Poa reptans seedlings; nitro blue tetrazolium staining) | effects on roots and shoots [1] |
| --- | --- | --- | --- | --- | --- | --- | --- | --- | --- | --- | --- | --- | --- |
| CC(=O)O [Acetic, Acetic acid] | seedling growth inhibition occurred | No | No | No | Yes | No |  |  |  |  |  |  |  |
| O=C(O)c1ccccc1 [Benzoic, Benzoic acid] | seedling growth inhibition occurred | No | Yes | Yes | Yes | No |  |  |  |  |  |  |  |
| CCCC(=O)O [Butyric, Butyric acid] | seedling growth inhibition occurred | No | Yes | Yes | Yes | Yes |  |  |  |  |  |  |  |
| O=C(O)CC(O)(CC(=O)O)C(=O)O [Citric, Citric acid] | seedling growth inhibition occurred | No | Yes | Yes | Yes | No |  |  |  |  |  |  |  |
| CCCCCC(=O)O [Hexanoic, Hexanoic acid] | seedling growth inhibition occurred | No | Yes | Yes | Yes | No |  |  |  |  |  |  |  |
| O=C(O)C(=O)O [Oxalic, Oxalic acid] | seedling growth inhibition occurred | No | Yes | Yes | Yes | Yes |  |  |  |  |  |  |  |
| CCC(=O)O [Propionic, Propionic acid] | seedling growth inhibition occurred | No | Yes | Yes | Yes | Yes |  |  |  |  |  |  |  |
| O=C(O)[C@]1(O)C[C@@H](O)[C@@H](O)[C@H](O)C1 [Quinic, Quinic acid] |  | No | No | No | No | No |  |  |  |  |  |  |  |
| N=C(N)NCCC[C@H](N)C(=O)O [arginine] |  |  |  |  |  |  | lack evidence of chlorophylls | repression of shoots and roots | all chloroplasts were colonized by actively motile bacteria | longer root hairs | high levels of hydrogen peroxide around roots | higher presence of superoxide |  |
| CCCC(=O)[O-].[Na+] [sodium butyrate] |  |  |  |  |  |  |  |  |  |  |  |  | suppression of root and shoot growth, reduced root branching, root browning, and increased bacterial and fungal growth on roots |
